Data set [1] is described as follows: amount of azithromycin dihydrate dissolved in coating solution, indicated by pH. Particulars: aqueous hydroxypropyl cellulose coating solution, pH 9. Type of data set: physicochemical. On the procedure:
Multiparticulates were made by a spray-coating process using the following procedure. First, 30 g of the low reactivity carrier hydroxypropyl cellulose containing virtually no acid or ester substituents (KLUCEL EF from Aqualon, Inc. of Wilmington, Del.) were dissolved into 800 g of distilled water. To this solution was then added 119.6 g of crystalline azithromycin dihydrate having a degree of crystallinity of >99%.

The conditions of data set [2]: distilled water at pH 6.9; cited from earlier work.

Molecules are shown by their SMILES.

As usually defined, the solubility is the dissolved amount per volume that the medium holds.

As for `CC[C@H]1OC(=O)[C@H](C)[C@@H](O[C@H]2C[C@@](C)(OC)[C@@H](O)[C@H](C)O2)[C@H](C)[C@@H](O[C@@H]2O[C@H](C)C[C@H](N(C)C)[C@H]2O)[C@](C)(O)C[C@@H](C)CN(C)[C@H](C)[C@@H](O)[C@]1(C)O` [azithromycin dihydrate, 9a-aza-9a-methyl-9-deoxo-9a-homoerythromycin A], the “amount of azithromycin dihydrate dissolved in the solution” value in data set [1] is “less than 1 mg/mL”. Besides, the solubility in data set [2] is 1100 µg/mL.

Source of the values: US20050123616A1, “Azithromycin multiparticulate dosage forms by liquid-based processes” (Pfizer Inc, priority 2003, published 2005).
